Test results taken from patent US11952364B2, “TRK inhibitors useful as anticancer drugs” (TYLIGAND BIOSCIENCE (SHANGHAI) LIMITED, priority 2018, dated 2024).
Read-outs that look alike come from different tables or passages of the source.

Test system: KM12 cells
Test: Proliferation of KM12 cells (CellTiter-Glo)
Assay type: cell-based, human
Conditions: Homo sapiens
Source text: KM12 is a human colon cancer cell line in which NTRK1 is highly expressed, and gene fusion occurs with TPM3 to form TPM3-NTRK1. • [Test method]: Promega's CellTiter-Glo® Luminescent Cell Viability Assay kit was used to evaluate the inhibitory activity of the compounds on the proliferation of KM12 cells. • [Instrument]: Spectramax M3 multifunctional microplate reader from Molecular Devices. • [Test materials]: KM12 cell line (ATCC, item number CRL-12496), 96-well transparent flat-bottomed black-walled cell culture plate (Corning, item number #3603), RPMI-1640 media (GE, cat #SH30027.01), Fetal Bovine Serum FBS (Thermo Fisher, cat #10099-141), CellTiter-Glo® Luminescent Cell Viability Assay Kit (Promega, cat #G7572), PBS (Solarbio, cat #P1020), Trypsin (Thermo Fisher, cat #25200072), DMSO (Sigma, cat #D2650). • [Experimental procedure]: When resuscitating KM12 cells, the freezing tube was quickly shaken in a 37° C. water bath to melt within 1 minute. The thawed cell suspension was mixed uniformly with RPMI1640 medium containing 10% FBS, centrifuged at 1000 rpm for 5 minutes, and the supernatant discarded. 5 mL of complete medium (RPMI1640 medium with 10% FBS) was taken to resuspend the cell pellets, charged into a cell culture flask with a bottom area of 25 cm^2, and incubated in a cell incubator at 37° C., 95% humidity and 5% CO2. Cells were allowed to passage when the cell confluence rate reached about 80%. For cell passage, the old medium was discarded, and the cells were washed twice with PBS, and 0.5 mL trypsin was added to digest the cells. Upon dispersing into single cells and exfoliating from the bottom of the cell culture flask, 4.5 mL of new complete medium was added to terminate the digestion. After pipetting the cell suspension evenly, 1/5 of the cell suspension was kept and added with 4 mL of new complete medium, and after pipetting evenly, the cell flask was placed in the cell incubator for further culturing. Cell plating was performed when the cell confluence rate reached about 80% again. For cell plating, 1/5 of the cell suspension was kept for further culturing as in the cell passage method, and the remaining 4/5 of the cell suspension was placed in a 15 mL centrifuge tube, detected for cell viability by Trypan blue exclusion method to ensure that cell viability was above 90%. A cell suspension with a density of 3.33×10^4 viable cells/mL was prepared with complete medium, and 90 μL of such cell suspension was added to a 96-well cell culture plate to obtain a cell density of 3000 viable cells/mL in the cell culture plate. A control group containing no cells, no compound and only complete medium (i.e. culture medium control) and a control group containing no compound but containing cells (i.e. cell control) were set. The cell plate was placed in a cell incubator overnight.
The 10 mM compound stock solution in DMSO was first serially diluted with DMSO at a dilution factor of 3.16 times, to obtain 9 concentrations, and the 10th concentration was set as DMSO control without compound. Then, PBS was used to dilute the DMSO solutions of compounds of different concentrations, at a dilution factor of 100 times, so that the DMSO concentration in the compound solution of each concentration was 1%. Finally, 10 μL of each of the above solutions was added to the corresponding cell culture plate, so that the initial compound concentration was 10 μM, with the remaining concentrations being successively diluted at a dilution factor of 3.16 times, and the DMSO content in the cell culture plate was 0.1%.
The cell plate was placed in a cell incubator and cultured for 72 hours. For endpoint detection, the CellTiter-Glo reagent was melted, and the cell plate was moved to room temperature to equilibrate for 30 minutes, added with 100 μL of CellTiter-Glo for each well, and shaken on an orbital shaker for 5 minutes to fully lyse the cells. […]

[1] = KM12, 72 h, Table 1, 72 hours, read-out: KM-12, IC50
[2] = KM12, Table 9, read-out: KM12 cell proliferation inhibitory activity (IC50)
[3] = KM12, Table 1-2, separate test, read-out: KM-12, IC50

**Q.** How did the IC50 [1] turn out when CCc1ccc(C(=O)Nc2ccc(Oc3cc4cnn(C)c4cc3-c3cn[nH]c3)c(F)c2)c(=O)n1-c1ccc(F)cc1 [Example 5, N-(3-fluoro-4-(1-methyl-6-(1H-pyrazol-4-yl)-1H-indazol-5-yloxy)phenyl)-1-(4-fluorophenyl)-6-ethyl-2-oxo-1,2-dihydropyridine-3-carboxamide] was run?
**A.** Its IC50 is 5.1 nM.

**Q.** For CCn1ncc2cc(Oc3ccc(NC(=O)c4ccc(OC)n(-c5ccc(F)cc5)c4=O)cc3F)c(-c3cn[nH]c3)cc21 [Example 23, N-(3-fluoro-4-(1-ethyl-6-(1H-pyrazol-4-yl)-1H-indazol-5-yloxy)phenyl)-1-(4-fluorophenyl)-6-methoxy-2-oxo-1,2-dihydropyridine-3-carboxamide], which IC50 (KM12, Table 1-1, separate test, read-out: KM-12, IC50) is on record?
**A.** The IC50 was 32 nM.

**Q.** Which IC50 [1] does the source give for Cn1ncc2cc(Oc3ccc(NC(=O)c4ccc(C(F)(F)F)n(-c5ccc(F)cc5)c4=O)cc3F)c(-c3cn[nH]c3)cc21 [Example 1, N-(3-fluoro-4-(1-methyl-6-(1H-pyrazol-4-yl)-1H-indazol-5-yloxy)phenyl)-1-(4-fluorophenyl)-6-trifluoromethyl-2-oxo-1,2-dihydmpyridine-3-carboxamide monomethanesulfonate] here?
**A.** The IC50 was 15.6 nM.

**Q.** Which IC50 [2] does the source give for CC(C)Oc1ccc(C(=O)Nc2ccc(Oc3cc4cnn5c4c(c3-c3cn[nH]c3)CC5)c(F)c2)c(=O)n1-c1ccc(F)cc1 [Example 34, N-(4-((5-(1H-pyrazol-4-yl)-6,7-dihydropyrrolo[3,2,1-hi]-indazol-4-yl)oxy)-3-fluorophenyl)-1-(4-fluorophenyl)-6-isopropoxy-2-oxo-12-dihydropyrndine-3-carboxamide] here?
**A.** Its IC50 is 37 nM.

**Q.** With CCOc1ccc(C(=O)Nc2ccc(Oc3cc4cnn5c4c(c3-c3cn[nH]c3)CC5)c(F)c2)c(=O)n1-c1ccc(F)cc1 [Example 32, N-(4-((5-(1H-pyrazol-4-yl)-6,7-dihydropyrrolo[3,2,1-hi]-indazol-4-yl)oxy)-3-fluorophenyl)-6-ethoxy-1-(4-fluorophenyl)-2-oxo-12-dihydropyridine-3-carboxamide] as the compound, how does the IC50 [2] read?
**A.** The IC50 was 67 nM.

**Q.** With CC(C)c1ccc(C(=O)Nc2ccc(Oc3cc4cnn(C)c4cc3-c3cn[nH]c3)c(F)c2)c(=O)n1-c1ccc(F)cc1 [Example 6, N-(3-fluoro-4-(1-methyl-6-(1H-pyrazol-4-yl)-1H-indazol-5-yloxy)phenyl)-1-(4-fluorophenyl)-6-isopropyl-2-oxo-1,2-dihydropyridine-3-carboxamide] as the compound, how does the IC50 [1] read?
**A.** The IC50 was 6.3 nM.

**Q.** Which IC50 [1] does the source give for O=C(Nc1cnn2ccc(N3CCC[C@@H]3c3cc(F)ccc3F)nc12)N1CC[C@H](O)C1 [LOXO-101, Larotrectinib, reference compound] here?
**A.** The IC50 was 8.3 nM.

**Q.** How did the IC50 [3] turn out when CSc1ccc(C(=O)Nc2ccc(Oc3cc4cnn(C)c4cc3-c3cn[nH]c3)c(F)c2)c(=O)n1-c1ccc(F)cc1 [Example 11, N-(3-fluoro-4-(1-methyl-6-(1H-pyrazol-4-yl)-1H-indazol-5-yloxy)phenyl)-1-(4-fluorophenyl)-6-methylthio-2-oxo-1,2-dihydropyidine-3-carboxamide] was run?
**A.** Its IC50 is 35 nM.

**Q.** With CCOc1ccc(C(=O)Nc2ccc(Oc3cc4cnn(C)c4cc3-c3cn[nH]c3)c(F)c2)c(=O)n1-c1ccc(F)cc1 [Example 14, N-(3-fluoro-4-(1-methyl-6-(1H-pyrazol-4-yl)-1H-indazol-5-yloxy)phenyl)-1-(4-fluorophenyl)-6-ethoxy-2-oxo-12-dihydropyridine-3-carboxamide] as the compound, how does the IC50 [3] read?
**A.** The IC50 was 24 nM.

**Q.** With Cc1ccc(C(=O)Nc2ccc(Oc3cc4cnn5c4c(c3-c3cn[nH]c3)CC5)c(F)c2)c(=O)n1-c1ccc(F)cc1 [Example 31, N-(4-((5-(1H-pyrazol-4-yl)-6,7-dihydropyrrolo[3,2,1-hi]-indazol-4-yl)oxy)-3-fluorophenyl)-1-(4-fluorophenyl)-6-methyl-2-oxo-1,2-dihydropyridine-3-carboxamide] as the compound, how does the IC50 [2] read?
**A.** The IC50 was 71 nM.

**Q.** For CCn1ncc2cc(Oc3ccc(NC(=O)c4ccc(OC(C)C)n(-c5ccc(F)cc5)c4=O)cc3F)c(-c3cn[nH]c3)cc21 [Example 26, N-(3-fluoro-4-(1-ethyl-6-(1H-pyrazol-4-yl)-1H-indazol-5-yloxy)phenyl)-1-(4-fluorophenyl)-6-isopropoxy-2-oxo-1,2-dihydropyridine-3-carboxamide], which IC50 (KM12, Table 1-3, separate test, read-out: KM-12, IC50) is on record?
**A.** Its IC50 is 18 nM.
